≈ marks a conversion by molar mass, not a printed value. Read-outs that look alike come from different tables or passages of the source. Where a SMILES comes first, the peptide text is derived from it. Bridges are numbered along the chain shown (N, C = ends).

Data set [1] relates to DF-1 chicken embryonic fibroblasts. The data set can be described thus: Cytotoxicity assay (MTS). It is filed as cell-based. To be noted: 100 µM peptide, 24 h, triplicate. As to the method: (§1) DF-1 chicken embryonic fibroblasts were cultured in DMEM containing 8% FBS and 2% CS. Caco-2 cells were cultured in EMEM containing 20% FBS. Cells in growth phase (~70% confluency) were incubated with a 100 µM concentration of each peptide for 24 h. Cell viability was determined in triplicate by MTS assay using the CellTiter 96® AQueous Cell Proliferation Assay, as per the manufacturer’s protocol.

For another data set, the system named is Caco-2 cells. The data set can be described thus: Cytotoxicity assay (MTS). Type of data set: cell-based, human. To be noted: 100 µM peptide, 24 h, triplicate. As to the method: as §1
The subject of data set [2] is Caco-2 human colorectal adenocarcinoma cells. The data set is described as follows: Cellular uptake of TAMRA-labeled peptides (flow cytometry, fluorescence microscopy). Type of data set: cell-based. To be noted: 5 h. As to the method:
Caco-2 human colorectal adenocarcinoma cells were cultured to growth phase (~70% confluency) in EMEM containing 20% FBS and were treated with 5 µM of TAMRA-labeled peptides for 5 h. The uptake of fluorescently labeled peptide in Caco-2 human colorectal adenocarcinoma cells was measured by flow cytometry using BD FACS Calibur (BD Biosciences (Franklin Lakes, NJ, USA)) and by fluorescence microscopy.

The next data set relates to E. coli. The data set can be described thus: Bacterial uptake of TAMRA-labeled peptides. Type of data set: cell-based, Escherichia coli. The conditions noted are these: 5 µM, up to 5 h, log phase culture, fluorescence of free peptide in supernatant, triplicate. How it is done: (§2) TAMRA-conjugated peptides were used for cellular uptake studies. Liquid cultures of E. coli and Bacillus subtilis at log phase (OD600 ≈ 0.3–0.4) were incubated with TAMRA-labeled peptides (5 µM), and the percentage uptake of peptides was determined in triplicate for 5 h by measuring the fluorescence of free peptide in the supernatant of bacteria at […] wavelengths of 579 and 546 nm. (1) % Uptake=100−Fluorescence of supernatant/Initial fluorescence of sample×100%

Another data set concerns Bacillus subtilis. The data set can be described thus: Bacterial uptake of TAMRA-labeled peptides. Type of data set: cell-based. The conditions noted are these: 5 µM, up to 5 h, log phase culture, fluorescence of free peptide in supernatant, triplicate. As to the method:
as §2

The subject of data set [3] is E. coli (ATCC 25922GFP) in Caco-2 cells. The data set can be described thus: Bacterial infection of Caco-2 cells. To be noted: 400,000 CFU/mL GFP-expressing E. coli, 5 µM peptide, 5 h, fluorescence microscopy. It is filed as cell-based, Escherichia coli. As to the method:
Caco-2 cells grown in six-well plates were also infected with E. coli (ATCC 25922GFP) at a CFU of 400,000 cells/mL. Cells were then incubated with 5 µM of TAMRA-labeled peptides for 5 h and were observed under fluorescence microscope for the presence of fluorescent bacteria.

Data set [4] relates to Escherichia coli ATCC 25922. The data set is described as follows: microbe, parasite or virus in culture. It is filed as cell-based. As to the method: (§3) E. coli, S. aureus, and S. enterica were cultured in nutrient broth at 37 °C. Listeria was cultured in brain heart infusion broth at 37 °C. Bacteria at early log phase (OD600 ≈ 0.1) were incubated with the peptides at different concentrations (100–3.12 µM) for 4–6 h. After the incubation period, the bacterial culture medium was diluted at different ratios (1 in 2000–2,000,000) in sterile PBS and was spread on blood agar (BA) plates. BA plates were incubated at 37 °C for 24 h, and the number of colonies formed was counted to determine cell viability.

The subject of data set [5] is Salmonella enterica ATCC 13076. The data set is described as follows: microbe, parasite or virus in culture. It is filed as cell-based. To be noted: for MIC: read-out: MIC S. enterica. How it is done: as §3
In data set [6] the test system is Staphylococcus aureus ATCC 25923. The data set can be described thus: microbe, parasite or virus in culture. It is filed as cell-based. How it is done:
as §3

For data set [7], the system named is Listeria monocytogenes ATCC 19115. Type of data set: cell-based. How it is done:
as §3

Data set [8] has as its system chicken red blood cell suspension. The data set can be described thus: Hemolysis assay. Type of data set: cell-based. The conditions noted are these: eukaryotic cells (cytotoxicity and hemolysis at 100 µM) versus antibacterial IC50. As to the method:
A chicken red blood cell suspension was purchased from Cedarlane (Burlington, CA). RBCs were incubated with a 100 µM concentration of each peptide at 37 °C for 4 h. Triton-X was used as a positive control to achieve total hemolysis of RBCs. Percentage hemolysis was determined in triplicate by centrifuging down the RBC suspension and by measuring the absorbance of the supernatant at 540 nm. (2) % Hemolysis=Absorbance of sample @540nm /Absorbance of positive control @540nm×100%.

Take `N=C(N)NCCC[C@@H]1NC(=O)[C@H](CCCNC(=N)N)NC(=O)[C@H](CCCNC(=N)N)NC(=O)[C@@H](N)CSSC[C@@H](C(N)=O)NC(=O)[C@H](Cc2c[nH]cn2)NC(=O)[C@@H]2CCCN2C(=O)[C@H](CO)NC(=O)CNC1=O` [mCA4-4] (H-CRRRGSPHC-NH2; disulfide 1-9): in data set [1], the “viability of DF-1 fibroblasts” value is “did not compromise the viability”. The “viability of Caco-2 intestinal epithelial cells” value in the data set with Caco-2 cells is listed as “did not compromise the viability”. Further, the “% fluorescent cells (cellular uptake)” value in data set [2] (Caco-2, 5 µM TAMRA-labeled peptide, flow cytometry) worked out at 19%. Also, the “uptake of fluorescent peptide seen by fluorescence microscopy” value in data set [2] (Caco-2, TAMRA-labeled peptide) is reported as “weak fluorescence”. Moreover, in the data set with E. coli, the “uptake of TAMRA-labeled peptide in E. coli” value was “taken up well”. The “uptake of TAMRA-labeled peptide in B. subtilis” value with Bacillus subtilis is “taken up well”. Besides, the “reduction of bacterial infection of Caco-2 cells” value in data set [3] is reported as “unable to reduce the bacterial burden”.

With `CC1(C)S[C@@H]2[C@H](NC(=O)[C@H](N)c3ccccc3)C(=O)N2[C@H]1C(=O)O` [Ampicillin, reference compound], the IC50 in data set [4] (Escherichia coli, ATCC25922, early log phase (OD600 ≈ 0.1), nutrient broth 37 °C, peptide 100–3.12 µM for 4–6 h, colony count on blood agar after 24 h, read-out: IC50 E. coli) was determined as 15.2 µM; in [5] (Salmonella enterica, ATCC13076, early log phase (OD600 ≈ 0.1), nutrient broth 37 °C, peptide 100–3.12 µM for 4–6 h, colony count on blood agar after 24 h, read-out: IC50 S. enterica), 7 µM; in data set [6] (Staphylococcus aureus, ATCC25923, early log phase (OD600 ≈ 0.1), nutrient broth 37 °C, peptide 100–3.12 µM for 4–6 h, colony count on blood agar after 24 h, read-out: IC50 S. aureus), 3.6 µM. Also, the MIC in data set [5] (Salmonella enterica, ATCC13076, early log phase, nutrient broth 37 °C, 4–6 h, colony count on blood agar) was determined as 13.5 µM (≈ 4.72 µg/mL).

For the molecule `CC[C@H](C)[C@@H]1NC(=O)[C@H](CCCNC(=N)N)NC(=O)[C@H](Cc2ccccc2)NC(=O)[C@H](CCCCN)NC(=O)[C@H](Cc2ccccc2)NC(=O)[C@H](CCCNC(=N)N)NC(=O)[C@@H](N)CSSC[C@@H](C(N)=O)NC(=O)[C@H]([C@@H](C)CC)NC(=O)[C@H](C(C)C)NC1=O` [mCA4-5] (H-CRFKFRIVIC-NH2; disulfide 1-10), in [4] (ATCC 25922), it took 15.1 µM to reach half-maximal inhibition (IC50) and the “MIC E. coli” value amounted to 40 µM (≈ 51.3 µg/mL). In addition, in data set [5] (ATCC 13076), the IC50 worked out at 10.2 µM and the MIC amounted to 30 µM (≈ 38.5 µg/mL). Also, in [6] (ATCC 25923), the midpoint of inhibition, the IC50, lay at 4 µM and the “MIC S. aureus” value was 15 µM (≈ 19.2 µg/mL). In addition, in [7], inhibition was half-maximal at 5.2 µM (IC50) and the “MIC L. monocytogenes” value is 10 µM (≈ 12.8 µg/mL). Moreover, the “nontoxic and hemocompatible concentration as fold of the IC50 of the peptide” value in data set [8] is listed as above 6 fold. The “reduction of bacterial infection of Caco-2 cells” value in data set [3] was “actively contained and reduced bacterial infections”.
